The values below come from US20070191431A1, “2-Amino-5-piperidinylimidazolone compounds and use thereof for beta-secretase modulation” (Wyeth, priority 2005, published 2007).

Read-outs that look alike come from different tables or passages of the source.

One data set has as its target human BACE1 (Homo sapiens, UniProt P56817). The data set can be described thus: BACE-1 fluorescent kinetic assay (Example 88). The format is biochemical. The protocol:
Evaluation of BACE-1 Binding Affinity of Test Compounds
Fluorescent Kinetic Assay
Dilution and mixing steps: total reaction volume: 100 μL
100 μM substrate dilution in 1× PBS was prepared, and
Fluorescence Readings: Readings at Aex 320 nm and Aem 420 nm are taken every 40 sec for 30 min at room temperature and the linear slope for substrate cleavage rate (vi) determined.

The mark [1] stands for this setting: 10 nM enzyme, 25 μM substrate WABC-6, Na-Acetate pH 4.5, room temperature, read-out: BACE1 (IC50 μM).

Chain of human BACE1 (P56817 46-501): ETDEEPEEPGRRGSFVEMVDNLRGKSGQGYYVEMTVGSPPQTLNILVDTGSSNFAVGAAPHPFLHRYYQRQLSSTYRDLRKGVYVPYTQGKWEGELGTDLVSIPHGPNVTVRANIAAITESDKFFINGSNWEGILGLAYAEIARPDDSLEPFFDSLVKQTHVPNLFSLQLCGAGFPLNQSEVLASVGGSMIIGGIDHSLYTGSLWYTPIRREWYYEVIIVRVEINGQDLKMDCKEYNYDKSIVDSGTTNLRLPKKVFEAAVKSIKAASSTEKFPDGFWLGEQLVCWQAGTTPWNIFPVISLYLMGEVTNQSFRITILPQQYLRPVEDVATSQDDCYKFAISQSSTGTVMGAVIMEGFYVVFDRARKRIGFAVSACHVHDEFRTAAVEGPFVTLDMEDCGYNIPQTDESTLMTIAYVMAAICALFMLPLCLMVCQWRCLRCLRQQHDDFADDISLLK

Broadly, the melting point is the temperature, or range, at which the solid turns liquid. By IC50 is commonly meant the concentration that inhibits the measured activity by half. On to `COCC(=O)Nc1cccc(C2(C3CCN(C(=O)c4ccc(C(=O)OC)cc4)CC3)N=C(N)N(C)C2=O)c1` (stereo not drawn) [Example 35, Methyl 4-{[4-(2-amino-4-{3-[(methoxyacetyl)amino]phenyl}-1-methyl-5-oxo-4,5-dihydro-1H-imidazol-4-yl)piperidin-1-yl]carbonyl}benzoate], for which the melting point lay in the range of 161 to 163 °C. For the same molecule, at human BACE1 (setting [1]), the IC50 was in the range of 0.01 to 1 µM.
On the same counts, the results for `Cc1cc(C(=O)N2CCC(C3(c4cccc(-c5ccccc5)c4)N=C(N)N(C)C3=O)CC2)cc(Cl)n1` (stereo not drawn) [Example 11, 2-amino-5-(1,1′-biphenyl-3-yl)-5-[1-(2-chloro-6-methylisonicotinoyl)piperidin-4-yl]-3-methyl-3,5-dihydro-4H-imidazol-4-one] are 145 to 147 °C and 1.01 to 3 µM.
`CN1C(=O)C(c2cccc(-c3ccccc3)c2)(C2CCN(C(=O)c3cccc(C#N)c3)CC2)N=C1N` (stereo not drawn) [Example 17, 3-({4-[2-amino-4-(1,1′-biphenyl-3-yl)-1-methyl-5-oxo-4,5-dihydro-1H -imidazol-4-yl]piperidin-1-yl}carbonyl)benzonitrile] registered a melting point of 141 to 143 °C. Further, the concentration for half-maximal inhibition (IC50) on human BACE1 (setting [1]) was in the range of 1.01 to 3 µM.
The corresponding values for `CN1C(=O)C(c2cccc(-c3ccccc3)c2)(C2CCN(C(=O)c3ccoc3)CC2)N=C1N` (stereo not drawn) [Example 10, 2-amino-5-(1,1′-biphenyl-3-yl)-5-[1-(3-furoyl)piperidin-4-yl]-3-methyl-3,5-dihydro-4H -imidazol-4-one] are 93 to 95 °C and 0.01 to 1 µM.
The molecule `CN1C(=O)C(c2cccc(-c3ccccc3)c2)(C2CCN(C(=O)c3ccccc3C#N)CC2)N=C1N` (stereo not drawn) [Example 18, 2-({4-[2-amino4-(1,1′-biphenyl-3-yl)-1-methyl-5-oxo-4,5-dihydro-1H -imidazol-4-yl]piperidin-1-yl}carbonyl)benzonitrile] yielded a melting point of 144 to 146 °C. Further, the IC50 on human BACE1 (setting [1]) is more than 3 µM.
Consider `CN1C(=O)C(c2cccc(-c3cc(F)ccc3F)c2)(C2CCN(C(=O)c3ccccc3)CC2)N=C1N` (stereo not drawn) [Example 86, 2-amino-5-(1-benzoylpiperidin-4-y)-5-(2′,5′-difluorobiphenyl-3-yl)-3-methyl-3,5-dihydro-4H-imidazol-4-one], for which the melting point is > 150 °C (dec.). Moreover, the IC50 on human BACE1 (setting [1]) lay within 0.01 to 1 µM.
The corresponding values for `COCC(=O)Nc1cccc(C2(C3CCN(C(=O)CCC(C)C)CC3)N=C(N)N(C)C2=O)c1` (stereo not drawn) [Example 49] are 105 to 107 °C and 0.01 to 1 µM.
On to `COCC(=O)Nc1cccc(C2(C3CCN(C(=O)CC4CCCCC4)CC3)N=C(N)N(C)C2=O)c1` (stereo not drawn) [Example 38], for which the melting point lay within 131 to 133 °C. Further, the IC50 at human BACE1 (setting [1]) was 0.01 to 1 µM.
On to `CN1C(=O)C(c2cccc(-c3ccccc3)c2)(C2CCN(C(=O)c3ccsc3)CC2)N=C1N` (stereo not drawn) [Example 12, 2-amino-5-(1,1′-biphenyl-3-yl)-3-methyl-5-[1-(thien-3-ylcarbonyl)piperidin-4-yl]-3,5-dihydro-4H-imidazol-4-one], for which the melting point fell in the range of 138 to 140 °C. Moreover, the IC50 on human BACE1 (setting [1]) is 0.01 to 1 µM.
The corresponding values for `COc1cncc(-c2cccc(C3(C4CCN(C(=O)c5ccccc5)CC4)N=C(N)N(C)C3=O)c2)c1` (stereo not drawn) [Example 82, 2-amino-5-(1-benzoylpiperidin-4-yl)-5-[3-(5-methoxypyridin-3-yl)phenyl]-3-methyl-3,5-dihydro-4H-imidazol-4-one] are 150 to 153 °C and 0.01 to 1 µM.
In turn, `COCC(=O)Nc1cccc(C2(C3CCN(C(=O)C4CCCC4)CC3)N=C(N)N(C)C2=O)c1` (stereo not drawn) [Example 40] registered a melting point of 134 to 136 °C. The IC50 at human BACE1 (setting [1]) lay in the range of 0.01 to 1 µM.
Turning to `CC(C)C(=O)N1CCC(C2(c3cccc(-c4ccccc4)c3)N=C(N)N(C)C2=O)CC1` (stereo not drawn) [Example 2, 2-Amino-5-(1,1′-biphenyl-3-yl)-5-(1-isobutyrylpiperidin-4-yl)-3-methyl-3,5-dihydro-4H-imidazol-4-one], the melting point is 131 to 134 °C. The IC50 at human BACE1 (setting [1]) lay within 0.01 to 1 µM.
In turn, `CN1C(=O)C(c2ccccc2)(C2CCNCC2)N=C1N` (stereo not drawn) [Example 27, 2-Amino-3-methyl-5-phenyl-5-piperidin-4-yl-3,5-dihydro-4H -imidazol-4-one] registered a melting point of 269 to 271 °C. On human BACE1, this molecule returned an IC50 of more than 3 µM.
For `CN1C(=O)C(c2cccc(C3CCCCC3)c2)(C2CCN(C(=O)c3ccccc3)CC2)N=C1N` (stereo not drawn) [Example 24, 2-amino-5-(1-benzoylpiperidin-4-yl)-5-(3-cyclohexylphenyl)-3-methyl-3,5-dihydr-4H -imidazol-4-one], the melting point was 189 to 190 °C. The IC50 at human BACE1 (setting [1]) fell in the range of 0.01 to 1 µM.
In the case of `COc1cccc(C(=O)N2CCC(C3(c4cccc(-c5ccccc5)c4)N=C(N)N(C)C3=O)CC2)c1` (stereo not drawn) [Example 5, 2-amino-5-(1,1′-biphenyl-3-yl)-5-[1-(3-methoxybenzoyl)piperidin-4-yl]-3-methyl-3,5-dihydro-4H-imidazol-4-one], the melting point was 131 to 134 °C. Also, the IC50 on human BACE1 (setting [1]) fell in the range of 0.01 to 1 µM.
